This is an account of results in patent US11497813B2, “Bortezomib conjugates and methods using same” (Frank EBETINO et al., priority 2015, dated 2022).

One data set deals with mouse MPCs. Nature of the data set: Osteoblast differentiation of mouse MPCs (ALP staining). Format: cell-based. As for the experimental part:
FIG. 5A is a scheme of an exemplary synthesis of compound BP-Btz1. FIG. 5B is a series of images of bone slices pre-incubated with 1 μM BP-Btz1, Btz, or bisphosphonate (BP) overnight. Drug solutions were removed and bone slices were washed with PBS extensively. […] (BM) cells from UB^G76V-GFP mice were cultured on bone slices in the presence of M-CSF and RANKL for 9 days. Top images (a): GFP^+ cells were observed under a fluorescence microscope and GFP signal intensity was quantified. Middle images (b): bone slices were fixed and subjected to TRAP staining for osteoclasts (OCs). OC #/slice were counted. Bottom images (c): cells were removed from slices. Toluidine blue staining was performed and pit areas/slice were counted. […] The ALP^+ areas were measured by Image J. *P<0.05 vs. Btz-treated cells.
MPCs are cultured in the OB differentiation medium plus or minus Btz, BT-Btz1 or BT-Btz2 (0.1, 0.5, 1, 5, 10 μM) for 1 to 3 weeks. […] The area of ALP+ and mineralized bone nodule is assessed. The expression levels of OB marker genes (ALP, osteocalcin, Runx2) is measured.
1. […] Following proteasome inhibitor administration, Ub^G76V accumulates and GFP fluorescence is readily apparent. GFP^+ OCs were detected at 4 and 8 hrs after adding Btz to OC cultures, which disappeared at 24 hrs. […] The number and area of OCs and resorption pits are assessed. […]

The subject of a further data set is Myeloma cells. In words: Myeloma cell growth in vitro (living cell count). Format: cell-based. Conditions: 24 hrs, living cell numbers counted. Here is the method: Myeloma cells were treated with different concentrations of testing compounds for 24 hrs. The living cell numbers were counted. *p<0.05 vs. Btz.
A further data set has as its system 5TGM1-GFP myeloma cells. In words: Multiple myeloma model, 5TGM1-GFP myeloma cells in NIH-III nude mice. It counts as in vivo, mouse. An excerpt:
FIG. 25A depicts the groups and treatment used in the experimental examples. FIG. 25B depicts a table of clinical observations. FIG. 25C depicts images of GFP imaging showing the distribution of myeloma cells. FIG. 25D is a table of experimental data showing blood IgG2b levels. FIG. 25E is a table of experimental data showing osteoblast differentiation.
A MM model was generated using tail vein injection of 5TGM1-GFP myeloma cells into 6-week-old female NIH-III nude mice. Tumor burden and bone volume were examined.

In another data set the test system is C57/B6 mice. In words: Systemic toxicity in C57/B6 mice, daily treatment for 3 weeks. Format: in vivo. As for the experimental part: C57/B6 mice, 7 w, BP or Btz (0.6 mg/kg), BP-Btz (1.2 mg/k), daily for 3 weeks. FIG. 29A depicts the groups and treatment used in the experimental examples. FIG. 29B depicts a table of experimental data of body weight before and after treatment. […] FIG. 29D depicts experimental data of bone marrow.

The test system of another data set is Ub-proteins. Nature of the data set: Duration of ubiquitinization effect (FIG. 18). Conditions: compared with Btz.
[1] abbreviates: myeloma mice, compared with Btz.

“Also recorded” adds a separate entry of the source.

`CC(C)C[C@H](NC(=O)[C@H](Cc1ccccc1)NC(=O)c1cnccn1)B1OCCN(CCOC(=O)NC(P(=O)(O)O)P(=O)(O)O)CCO1` [BP-Btz1]: the osteoblast differentiation result in the data set with mouse MPCs was “stimulates osteoblast differentiation”. Also, the myeloma cell growth result in the data set with Myeloma cells is recorded as “inhibits myeloma cell growth”. The “peripheral blood platelet and cell numbers (blood counts)” value in the data set with 5TGM1-GFP myeloma cells (FIG. 27, compared with Btz) was “less deleterious effects than Btz; also recorded: reduces side effects on blood counts compared with Btz”. Moreover, the “osteoblast colonies from bone marrow cells” value in the data set with 5TGM1-GFP myeloma cells (bone marrow cells from treated myeloma mice) is “form more osteoblast colonies”. For the same molecule, in the data set with 5TGM1-GFP myeloma cells (setting [1]), the myeloma-induced bone loss entry is “reduces tumor burden and myeloma-induced bone loss more effectively than Btz; also recorded: prevents myeloma-induced bone loss more effectively than Btz”; the tumor burden entry is “reduces tumor burden and myeloma-induced bone loss more effectively than Btz”. The “B cell numbers in bone marrow” value in the data set on C57/B6 mice (C57/B6 mice, 7 w, daily for 3 weeks) is listed as “reduces B cell numbers”. Moreover, in the data set with C57/B6 mice (C57/B6 mice, daily for 3 weeks, compared with Btz), the systemic toxicity entry is given as “less systemic toxicity than Btz”. In the data set with C57/B6 mice (EM images of dorsal root ganglia), the “toxic effect on neurons (dorsal root ganglia)” value is listed as “prevents toxic effect on neurons”. Besides, the ubiquitinization effect result in the data set on Ub-proteins is recorded as “more sustained ubiquitinization effect than Btz”.
